Data published in patent US12053475B2, “TRPC ion channel inhibitors for use in therapy” (UNIVERSITY OF LEEDS, priority 2017, dated 2024).
Each block holds one compound with its values, some of them ahead of it.

Tests used:
TRPC5 [1] = target: T1, TRPC5 (Homo sapiens, UniProt Q9UL62); set-up: host or cells: HEK239 (so in the source); conditions: HEK239 cells expressing TRPC5; Naylor et al.; cited from earlier work
T1 sequence (Q9UL62 1-973): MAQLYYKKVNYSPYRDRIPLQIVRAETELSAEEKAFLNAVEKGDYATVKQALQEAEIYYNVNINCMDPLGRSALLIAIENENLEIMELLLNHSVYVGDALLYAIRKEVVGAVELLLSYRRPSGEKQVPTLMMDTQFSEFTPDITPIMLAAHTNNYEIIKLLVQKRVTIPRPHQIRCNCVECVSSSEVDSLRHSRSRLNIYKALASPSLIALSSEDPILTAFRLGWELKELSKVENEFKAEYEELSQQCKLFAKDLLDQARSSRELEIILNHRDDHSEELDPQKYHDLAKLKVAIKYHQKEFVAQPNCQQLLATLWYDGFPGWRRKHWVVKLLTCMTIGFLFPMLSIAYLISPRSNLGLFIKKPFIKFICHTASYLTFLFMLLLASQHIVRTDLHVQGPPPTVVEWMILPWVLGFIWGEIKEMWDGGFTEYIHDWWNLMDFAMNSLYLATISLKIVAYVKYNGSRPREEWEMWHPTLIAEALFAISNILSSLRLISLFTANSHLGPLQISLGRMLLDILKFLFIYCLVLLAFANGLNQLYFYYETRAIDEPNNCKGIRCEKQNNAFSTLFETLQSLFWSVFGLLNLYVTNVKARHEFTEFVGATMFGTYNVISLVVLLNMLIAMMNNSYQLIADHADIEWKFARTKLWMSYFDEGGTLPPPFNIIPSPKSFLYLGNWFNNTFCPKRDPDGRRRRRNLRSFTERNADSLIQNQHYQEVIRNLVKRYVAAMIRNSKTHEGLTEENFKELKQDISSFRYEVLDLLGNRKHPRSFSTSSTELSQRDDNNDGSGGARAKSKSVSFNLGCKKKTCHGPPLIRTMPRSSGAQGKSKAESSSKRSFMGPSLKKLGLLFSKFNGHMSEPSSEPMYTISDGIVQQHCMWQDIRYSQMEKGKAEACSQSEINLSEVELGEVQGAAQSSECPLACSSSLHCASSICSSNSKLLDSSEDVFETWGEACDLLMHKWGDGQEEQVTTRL

TRPC5 [2] = target: T1, TRPC5; experiment: Intracellular Ca2+ measurement, HEK 293 cells expressing inducible human TRPC5, activated by (−)-Englerin A; assay type: cell-based; set-up: expressed in transfected cells; conditions: 10 μM DE2, 30 min pre-incubation; EA 100 nM; FIG. 12
Method: (§1) Cell culture Mouse stromal vascular fraction (SVF) cells from subcutaneous adipose tissue were isolated by mincing of the tissue followed by enzymatic digestion with 0.3 mg·mL^−1 Collagenase type II (Sigma), 0.3 mg·mL^−1 Collagenase type IV (Sigma), 2 mg·mL^−1 BSA (Sigma), 0.08 mg·mL^−1 DNase I (Sigma) and 0.04 mg·mL^−1 Dispase (Thermo Fisher Scientific) in serum free RPMI 1640 media (Gibco) for 45 min at 37° C. in 95% O2 and 5% CO2 environment. Isolated cells were centrifuged and processed through a 100 μm cell strainer. Following centrifugation, the cell pellet was reconstituted in full RPMI 1640 media containing 15% fetal calf serum and 1% penicillin-streptomycin (Gibco). Media was changed on the following day to remove non-adherent cells. […]
(§2) Intracellular Ca^2+ measurement HEK 293 cells containing stable incorporation of inducible TRPC4 or TRPC5 expression were seeded into 96-well clear-bottomed poly-D-lysine-coated black plates (Corning Life Sciences) at 90% confluence 24 hr before the experiment. […] The Fura-2-AM fluorescence was recorded using a 96-well fluorescence plate reader FlexStation II (Molecular Devices) at excitation wavelengths of 340 nm and 380 nm, and the emitted light was collected at 510 nm. […]

[3] = test system: adipocytes from subcutaneous white adipose tissue of mice; experiment: Respirometry (oxygen consumption) in adipocytes; assay type: cell-based; conditions: 10 μM DE2, 24 hr pre-incubation; vs DMSO; FIG. 13
Method: Protein preparation and immunoblotting Proteins were isolated from cells and tissues using radio-immunoprecipitation assay (RIPA) buffer containing (in mM) 150 NaCl, 20 Tris HCl, 1 EGTA, 1 EDTA, 1% NP-40, 0.1% sodium dodecyl sulfate (SDS) and 1% sodium deoxylate. Complete™ protease inhibitor (Roche Life Science) was added into RIPA fresh before use in accordance with the manufacturer's instructions. Immunoblotting was carried out under standard protocols with primary antibodies anti-UCP1 (1:500, ab23841; Abcam), Cytochrome C (1:4000, ab110325; Abcam), Akt (pan) (1:1000, 4691; Cell Signaling) and Phospho-Akt (Ser473) (1:500, 4060; Cell Signaling). […] The cells were inoculated into the OROBOROS Oxygraph-2k chambers and oxidative phosphorylation analyses were performed using the mitochondrial substrate-uncoupler-inhibitor-titration protocol consisting of: substrate activation using sodium pyruvate, inhibition of ATP synthase using oligomycin, uncoupling via sequential addition of FCCP to maximum oxygen flux, mitochondria complex I and III inhibition using Rotenone and Antimycin A. Traces were analyzed using DatLab 6 Software (OROBOROS), measuring for routine state respiration (routine), mitochondrial leak (leak), maximum uncoupling capacity of the electron transport system (ETS) and rotenone and antimycin A-inhibited residual oxygen consumption (ROX). […]

human TRPC4 = target: T2, human TRPC4 (Homo sapiens, UniProt Q9UBN4); experiment: Intracellular Ca2+ measurement, HEK 293 cells expressing inducible human TRPC4, activated by (−)-Englerin A; assay type: cell-based; conditions: 10 μM DE2, 30 min pre-incubation; EA 100 nM; FIG. 12
T2 construct: expressed in transfected cells
T2 sequence (Q9UBN4 1-977): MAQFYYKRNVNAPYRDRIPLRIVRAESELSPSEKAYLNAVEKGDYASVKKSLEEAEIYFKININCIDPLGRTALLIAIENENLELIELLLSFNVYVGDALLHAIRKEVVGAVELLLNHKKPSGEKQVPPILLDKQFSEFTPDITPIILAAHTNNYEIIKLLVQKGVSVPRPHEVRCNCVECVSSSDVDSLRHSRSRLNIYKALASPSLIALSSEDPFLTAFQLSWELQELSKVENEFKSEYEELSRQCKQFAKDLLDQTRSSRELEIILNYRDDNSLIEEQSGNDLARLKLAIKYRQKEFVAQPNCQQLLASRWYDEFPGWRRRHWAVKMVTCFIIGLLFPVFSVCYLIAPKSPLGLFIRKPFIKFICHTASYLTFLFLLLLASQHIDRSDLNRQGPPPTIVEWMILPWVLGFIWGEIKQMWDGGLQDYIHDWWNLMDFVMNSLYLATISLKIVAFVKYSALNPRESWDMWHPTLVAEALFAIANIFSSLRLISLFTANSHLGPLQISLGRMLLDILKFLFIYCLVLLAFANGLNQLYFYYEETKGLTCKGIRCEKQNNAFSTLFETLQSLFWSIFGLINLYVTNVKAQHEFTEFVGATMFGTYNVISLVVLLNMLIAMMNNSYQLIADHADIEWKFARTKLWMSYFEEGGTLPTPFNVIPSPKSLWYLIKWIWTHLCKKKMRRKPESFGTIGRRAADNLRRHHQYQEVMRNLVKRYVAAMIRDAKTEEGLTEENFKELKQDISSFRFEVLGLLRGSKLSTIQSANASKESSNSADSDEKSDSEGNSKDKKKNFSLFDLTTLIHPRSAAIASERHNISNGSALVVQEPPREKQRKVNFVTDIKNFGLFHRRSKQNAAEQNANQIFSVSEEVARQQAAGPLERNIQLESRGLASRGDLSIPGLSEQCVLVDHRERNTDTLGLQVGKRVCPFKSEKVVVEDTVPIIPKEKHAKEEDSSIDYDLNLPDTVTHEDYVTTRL
Method: as §1, §2

UCP1 and Cytochrome C = experiment: mRNA analysis of UCP1 and Cytochrome C expression in adipocytes (beiging markers); assay type: cell-based, mice; conditions: 10 μM DE2, 24 hr pre-incubation; vs DMSO; FIG. 14
Method: Quantitative RT-PCR analysis RNA from cell and tissue samples was obtained using TRIzol reagent (Thermo Fisher Scientific). 1 μg RNA was reverse-transcribed using High-Capacity cDNA Reverse Transcription Kit (Applied Biosystems) and RT-PCR analysis was performed using SYBR Select Masters Mix (Thermo Fisher Scientific) and LightCycler® 480 (Roche Life Science). The primers used are tabulated in Supplementary Table 1^34. Relative fold-change in expression was calculated using the comparative cycle method (2^−ΔΔCt) Mouse Gapdh gene was used as the reference.
To determine the influence of DE2 and C31 on expression of markers of white-to-brown adipocyte phenotypic switching, transcript accumulation of UCP1 and Cytochrome C was measured by mRNA analysis in adipocytes from subcutaneous white adipose tissue (n=4-5) of C4WT, C5WT, C4KO, and C5KO mice. Cells were pre-incubated with (24 hr) and maintained in 10 μM DE2 or 100 nM C31 where indicated. The vehicle control was DMSO.

TRPC5 [4] = target: T1, TRPC5; set-up: host or cells: HEK239 (so in the source); conditions: Mol Pharmacol. 2014; cited from earlier work

Structure (SMILES): O=C1O[C@H]([C@@H](O)CO)C(O)=C1O [vitamin C]
inhibition of TRPC5 ion channel function (TRPC5 [1]): inhibitors

inhibition of TRPC5 channels (intracellular Ca2+) (TRPC5 [2]): demonstrated inhibition | inhibition of TRPC4 channels (intracellular Ca2+) (human TRPC4): demonstrated inhibition
Structure (SMILES): CCN(CC)Cc1nc2ccccc2n1Cc1ccc(Cl)cc1 [DE2, ({1-[(4-Chlorophenyl)methyl]-1H-benzimidazol-2-yl}methyl)diethylamine]
adipocyte mitochondrial respiration [3]: increases | adipocyte UCP1/Cytochrome C expression (UCP1 and Cytochrome C): increases

Structure (SMILES): Clc1ccc(Cn2c(CN3CCCC3)nc3ccccc32)cc1 [Clemizole, clemizole]
inhibition of TRPC5 (TRPC5 [4]): potent and selective inhibitor

Structure (SMILES): O=c1c(O)c(-c2ccccc2)oc2cc(O)cc(O)c12 [galangin]
inhibition of TRPC5 ion channel function (TRPC5 [1]): inhibitors

Structure (SMILES): Oc1ccc(C=Cc2cc(O)cc(O)c2)cc1 [resveratrol]
inhibition of TRPC5 ion channel function (TRPC5 [1]): inhibitors
